What was measured:
Assay in all cases: relative viability (nuclei count vs DMSO), 5 days (fraction); higher = more cells survive
Linifanib + Pictilisib = compound: Cc1ccc(F)c(NC(=O)Nc2ccc(-c3cccc4[nH]nc(N)c34)cc2)c1 [Linifanib] + CS(=O)(=O)N1CCN(Cc2cc3nc(-c4cccc5[nH]ncc45)nc(N4CCOCC4)c3s2)CC1 [Pictilisib] (partner 1 µM)
How it was run: (§1)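 Five library-drug doses in √10 steps were combined with a fixed anchor-drug dose, or a single drug was given alone, by pin tool to lung cancer cell lines in 1536-well plates the day after seeding. Nuclei were stained and counted after 5 days. Relative viability is the nuclei count in treated wells over that in vehicle wells, taken as the median of duplicate plates.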

Linifanib + Tozasertib = compound: Cc1ccc(F)c(NC(=O)Nc2ccc(-c3cccc4[nH]nc(N)c34)cc2)c1 [Linifanib] + Cc1cc(Nc2cc(N3CCN(C)CC3)nc(Sc3ccc(NC(=O)C4CC4)cc3)n2)n[nH]1 [Tozasertib] (partner 0.1 µM)
How it was run: as §1

Linifanib + AZD7762 = compound: Cc1ccc(F)c(NC(=O)Nc2ccc(-c3cccc4[nH]nc(N)c34)cc2)c1 [Linifanib] + NC(=O)Nc1cc(-c2cccc(F)c2)sc1C(=O)N[C@H]1CCCNC1 [AZD7762] (partner 0.2 µM)
How it was run: as §1

Linifanib + Olaparib = compound: Cc1ccc(F)c(NC(=O)Nc2ccc(-c3cccc4[nH]nc(N)c34)cc2)c1 [Linifanib] + O=C(c1cc(Cc2n[nH]c(=O)c3ccccc23)ccc1F)N1CCN(C(=O)C2CC2)CC1 [Olaparib] (partner 8 µM)
How it was run: as §1

Linifanib + Linsitinib = compound: Cc1ccc(F)c(NC(=O)Nc2ccc(-c3cccc4[nH]nc(N)c34)cc2)c1 [Linifanib] + C[C@]1(O)C[C@@H](c2nc(-c3ccc4ccc(-c5ccccc5)nc4c3)c3c(N)nccn32)C1 [Linsitinib] (partner 1 µM)
How it was run: as §1

Linifanib + Lapatinib = compound: Cc1ccc(F)c(NC(=O)Nc2ccc(-c3cccc4[nH]nc(N)c34)cc2)c1 [Linifanib] + CS(=O)(=O)CCNCc1ccc(-c2ccc3ncnc(Nc4ccc(OCc5cccc(F)c5)c(Cl)c4)c3c2)o1 [Lapatinib] (partner 2 µM)
How it was run: as §1

Row | Cell Line | relative viability (Linifanib + Pictilisib; first compound 0.03162 µM) | relative viability (Linifanib + Pictilisib; first compound 0.1 µM) | relative viability (Linifanib + Pictilisib; first compound 0.3162 µM) | relative viability (Linifanib + Tozasertib; first compound 0.03162 µM) | relative viability (Linifanib + Tozasertib; first compound 0.1 µM) | relative viability (Linifanib + Tozasertib; first compound 0.3162 µM) | relative viability (Linifanib + AZD7762; first compound 0.03162 µM) | relative viability (Linifanib + AZD7762; first compound 0.1 µM) | relative viability (Linifanib + AZD7762; first compound 0.3162 µM) | relative viability (Linifanib + Olaparib; first compound 0.03162 µM) | relative viability (Linifanib + Olaparib; first compound 0.1 µM) | relative viability (Linifanib + Olaparib; first compound 0.3162 µM) | relative viability (Linifanib + Linsitinib; first compound 0.03162 µM) | relative viability (Linifanib + Linsitinib; first compound 0.1 µM) | relative viability (Linifanib + Linsitinib; first compound 0.3162 µM) | relative viability (Linifanib + Lapatinib; first compound 0.03162 µM) | relative viability (Linifanib + Lapatinib; first compound 0.1 µM) | relative viability (Linifanib + Lapatinib; first compound 0.3162 µM)
1 | NCI-H1944 | 0.368 | 0.378 | 0.341 | 0.249 | 0.261 | 0.259 | 0.43 | 0.65 | 0.479 | 0.42 | 0.434 | 0.367 | 1.09 | 1.17 | 1.14 | 0.943 | 0.881 | 0.645
2 | NCI-H2405 | 0.499 | 0.606 | 0.477 | 0.785 | 0.809 | 0.778 | 0.71 | 0.777 | 0.803 | 0.94 | 0.835 | 0.828 | 0.886 | 0.98 | 0.852 | 1.19 | 1.05 | 1.12
3 | NCI-H1975 | 0.298 | 0.3 | 0.367 | 0.681 | 0.901 | 0.722 | 0.688 | 0.706 | 0.618 | 0.797 | 0.881 | 0.796 | 0.898 | 0.98 | 1.02 | 0.898 | 1.11 | 0.874
4 | HCC-78 | 0.24 | 0.21 | 0.237 | 0.493 | 0.519 | 0.371 | 0.629 | 0.595 | 0.599 | 0.946 | 0.77 | 0.943 | 0.528 | 0.526 | 0.497 | 1.23 | 0.976 | 0.674
5 | CAL-12T | 0.439 | 0.478 | 0.33 | 0.333 | 0.348 | 0.355 | 0.623 | 0.661 | 0.588 | 0.642 | 0.703 | 0.702 | 0.905 | 0.722 | 0.755 | 0.75 | 0.819 | 0.534
6 | NCI-H23 | 0.542 | 0.524 | 0.523 | 0.366 | 0.39 | 0.329 | 0.259 | 0.287 | 0.31 | 0.358 | 0.347 | 0.186 | 0.536 | 0.798 | 0.475 | 0.991 | 1.14 | 1.01
7 | NCI-H1666 | 0.492 | 0.419 | 0.402 | 0.626 | 0.666 | 0.658 | 0.941 | 0.854 | 0.833 | 0.809 | 0.716 | 0.766 | 0.66 | 0.869 | 0.803 | 0.792 | 0.649 | 0.705
8 | NCI-H650 | 0.777 | 0.905 | 0.871 | 0.704 | 0.733 | 0.73 | 0.947 | 0.99 | 0.675 | 0.348 | 0.397 | 0.361 | 1 | 1.07 | 0.851 | 1.16 | 0.941 | 0.766
9 | HCC-366 | 0.148 | 0.21 | 0.214 | 0.0836 | 0.0997 | 0.105 | 0.181 | 0.243 | 0.221 | 0.337 | 0.458 | 0.323 | 0.676 | 0.735 | 0.5 | 1.02 | 1.12 | 0.895

— the supplement of paper PMC10307832
